The record followed here is patent publication US6417212B1, “Modulators of peroxisome proliferator activated receptors” (Eli Lilly & Company, priority 1999, dated 2002).

One experiment deals with T1, huPPARα (Homo sapiens, UniProt Q07869).
T1 sequence (Q07869 1-468): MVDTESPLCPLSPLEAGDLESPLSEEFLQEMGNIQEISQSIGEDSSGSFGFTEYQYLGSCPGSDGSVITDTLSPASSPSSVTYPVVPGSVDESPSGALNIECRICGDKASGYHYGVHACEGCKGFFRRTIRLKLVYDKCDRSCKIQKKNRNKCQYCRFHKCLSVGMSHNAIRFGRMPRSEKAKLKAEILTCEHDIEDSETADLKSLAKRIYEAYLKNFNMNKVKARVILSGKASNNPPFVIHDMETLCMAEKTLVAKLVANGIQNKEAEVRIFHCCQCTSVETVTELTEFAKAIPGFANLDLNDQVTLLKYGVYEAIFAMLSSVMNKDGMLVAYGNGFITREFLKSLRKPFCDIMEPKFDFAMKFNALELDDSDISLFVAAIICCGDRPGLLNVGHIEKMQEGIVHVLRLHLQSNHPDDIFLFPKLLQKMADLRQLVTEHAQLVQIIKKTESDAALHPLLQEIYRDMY
T1 sequence (P19793 1-462 partner): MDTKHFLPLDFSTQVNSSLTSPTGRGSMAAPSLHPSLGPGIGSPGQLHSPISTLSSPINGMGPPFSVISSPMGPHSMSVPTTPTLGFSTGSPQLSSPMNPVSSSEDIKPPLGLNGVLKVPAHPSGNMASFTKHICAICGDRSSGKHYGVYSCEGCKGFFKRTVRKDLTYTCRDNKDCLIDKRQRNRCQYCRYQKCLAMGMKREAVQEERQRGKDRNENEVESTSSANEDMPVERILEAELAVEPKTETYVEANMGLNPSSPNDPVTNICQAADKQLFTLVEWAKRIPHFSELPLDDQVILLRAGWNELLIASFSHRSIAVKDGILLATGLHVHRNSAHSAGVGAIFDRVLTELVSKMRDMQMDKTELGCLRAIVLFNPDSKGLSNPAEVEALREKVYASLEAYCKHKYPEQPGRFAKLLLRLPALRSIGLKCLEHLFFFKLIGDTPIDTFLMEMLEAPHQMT
As to the kind of experiment: DNA-dependent binding (ABCD binding), SPA, huPPARα. As to conditions: displacement of tritium-labeled PPARα agonist radioligand. The procedure: DNA-dependent binding (ABCD binding) was carried out using SPA technology with PPAR receptors. Tritium-labeled PPARγ and PPARα agonists were used as radioligands for generating displacement curves and IC50 values with compounds of the invention. Cotransfection assays were carried out in CV-1 cells. The reporter plasmid contained an acylCoA oxidase (AOX) PPRE and TK promoter upstream of the luciferase reporter cDNA. Appropriate PPARs and RXRα were constitutively expressed using plasmids containing the CMV promoter. […] In order to eliminate such interference, a GAL4 chimeric system was used in which the DNA binding domain of the transfected PPAR was replaced by that of GAL4, and the GAL4 response element was utilized in place of the AOX PPRE. Cotransfection efficacy was determined relative to PPARα agonist and […] reference molecules. Efficacies were determined by computer fit to a concentration-response curve, or in some cases at a single high concentration of agonist (10 μM). For binding or cotransfection studies with receptors other than PPARs, similar assays were carried out using appropriate ligands, receptors, reporter constructs, etc., for that particular receptor.
These studies were carried out to evaluate the ability of compounds of the invention to bind to and/or activate various nuclear transcription factors, particularly huPPARα (“hu” indicates “human”) and huPPARγ. These studies provide in vitro data concerning efficacy and selectivity of compounds of the invention. Furthermore, binding and cotransfection data for compounds of the invention were compared with corresponding data for marketed compounds that act on either huPPARα or huPPARγ.

Another experiment has as its target T2, huPPARγ (Homo sapiens, UniProt P37231).
T2 sequence (P37231 1-505): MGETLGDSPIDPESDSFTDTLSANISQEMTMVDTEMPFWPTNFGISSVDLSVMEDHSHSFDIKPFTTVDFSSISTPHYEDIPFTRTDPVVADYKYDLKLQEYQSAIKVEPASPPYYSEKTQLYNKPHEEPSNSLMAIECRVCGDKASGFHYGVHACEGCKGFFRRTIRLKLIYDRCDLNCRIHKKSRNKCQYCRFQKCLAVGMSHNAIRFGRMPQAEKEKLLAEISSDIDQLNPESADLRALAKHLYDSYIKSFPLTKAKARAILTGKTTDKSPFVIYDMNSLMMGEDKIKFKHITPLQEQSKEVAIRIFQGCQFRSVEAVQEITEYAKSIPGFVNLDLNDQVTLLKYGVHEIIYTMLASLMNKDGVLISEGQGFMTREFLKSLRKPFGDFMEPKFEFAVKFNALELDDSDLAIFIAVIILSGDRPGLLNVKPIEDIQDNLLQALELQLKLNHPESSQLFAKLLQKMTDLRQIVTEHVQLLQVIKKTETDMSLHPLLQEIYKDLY
T2 sequence (P19793 1-462 partner): T1 sequence (P19793 1-462 partner)
As to the kind of experiment: Cotransfection assay in CV-1 cells, huPPARγ. The format is cell-based. Also on record: expressed in transfected cells; host or cells: CV-1 cells. As to conditions: AOX PPRE luciferase reporter, relative to agonist reference molecule, read-out: huPPARγ CTF Efficacy. In general terms: Reporter assays use an easily measured gene product as a stand-in for the process of interest.

For the compound `Cc1sc(-c2cccc(-c3ccccc3)c2)nc1CCOc1ccc(OC(C)(C)C(=O)O)cc1` [Example 46, 2-{4-[2-(2-Biphenyl-3-yl-5-methyl-thiazol-4-yl)-ethoxy]-phenoxy}-2-methyl-propionic acid], the concentration for half-maximal inhibition (IC50) (commonly the concentration that gives 50% inhibition) on huPPARα stood at 447 nM. Moreover, the Emax on huPPARγ was found to be 142%.
For `Cc1oc(-c2ccc(-c3c(F)cccc3F)cc2)nc1CCOc1ccc(OC(C)(C)C(=O)O)cc1` [Example 14, 2-(4-{2-[2-(2′,6′-Difluorobiphenyl-4-yl)-5-methyloxazol-4-yl]-ethoxy}-phenoxy)-2-methylpropionic acid] the same measures were 155 nM and 84%.
For `Cc1oc(-c2ccc(-c3ccccc3)cc2)nc1CCOc1cccc(OC(C)(C)C(=O)O)c1` [Example 21, 2-{3-[2-(2-Biphenyl-4-yl-5-methyloxazol-4-yl)ethoxy]phenoxy}-2-methylpropionic acid] the same measures were 97 nM and 70%.
